US20060079453A1, “Hla binding peptides and their uses” (priority 2002, published 2006)
Like-named read-outs stand apart in the source and are kept apart here. No end group written: not given here.

What was measured:
Experiment in all cases: biochemical
Type in all cases: binding
HLA-DR DRB1*0401 (DR4) = HLA-DR DRB1*0401 (DR4) (Homo sapiens, UniProt P01903+P01911, A100K/A169T/F76Y/I96L/K127E/L162R/M171V/N62H/P40V/Q125Y/R42H/S133A/S149N/S66Y/V115G/V209L/W38E)
HLA-DR DRB1*0701 (DR7) = HLA-DR DRB1*0701 (DR7) (Homo sapiens, UniProt P01903+P01911, A100R/A102G/A103Q/D57E/D86V/E43K/F76Y/K127E/L162R/M171V/P40G/Q125H/Q99D/R33Q/R42Y/R54Q/S133A/S66F/T210M/V115G/Y107V/Y59L/Y89S)
HLA-DR DRB1*0802 (DR8) = HLA-DR DRB1*0802 (DR8) (Homo sapiens, UniProt P01903+P01911, A100R/A103L/A169T/F76Y/H45Y/I96F/K41T/L162R/M171V/P40S/Q125H/Q178H/Q39Y/Q99D/R218S/R42G/S66Y/V115G/W38E)
HLA-DR DRB1*0901 (DR9) = HLA-DR DRB1*0901 (DR9) (Homo sapiens, UniProt P01903+P01911, A100R/A103E/D57H/D86V/F55Y/F60I/F76Y/I96F/K127E/L162R/M171V/P40D/Q125H/Q99R/R33Q/R42F/S133A/S66N/T210M/V115G/W38K/Y107V/Y59G/Y89S)
HLA-DR DRB1*1101 (DR11) = HLA-DR DRB1*1101 (DR11) (Homo sapiens, UniProt P01903+P01911, A100R/A169T/A87E/I96F/K41T/L162R/M171V/P40S/Q125H/Q178H/Q39Y/Q99D/R42S/S66Y/T262R/V115G/W38E); details: DRB1 *1101
HLA-DR DRB1*1101 (DR11), sequence (P01903 26-254 limits assumed, other chains not shown): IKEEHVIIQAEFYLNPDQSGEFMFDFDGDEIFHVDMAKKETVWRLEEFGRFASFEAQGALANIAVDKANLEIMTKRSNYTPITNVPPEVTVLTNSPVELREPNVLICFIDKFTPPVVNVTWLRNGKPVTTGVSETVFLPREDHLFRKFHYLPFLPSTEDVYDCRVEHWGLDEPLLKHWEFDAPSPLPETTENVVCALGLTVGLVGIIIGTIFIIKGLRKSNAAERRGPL

HLA-DR DRB1*1302 (DR13) = HLA-DR DRB1*1302 (DR13) (Homo sapiens, UniProt P01903+P01911, A100E/A169T/K41T/L162R/M171V/P40S/Q125H/Q178H/Q39Y/Q99D/R42S/S66N/T262R/V115G/W38E/Y61H); details: DRBI *1302
HLA-DR DRB1*1302 (DR13), sequence (P01903 26-254 limits assumed, other chains not shown): as above

HLA-DR DRB1*1501 (DR15) = HLA-DR DRB1*1501 (DR15) (Homo sapiens, UniProt P01903+P01911); details: DRBI *1501
HLA-DR DRB4*0101 (DR53) = HLA-DR DRB4*0101 (DR53) (Homo sapiens, UniProt P01903+P13762, G164S); details: DRB4 *0101
HLA-DR DRB5*0101 (DR51) = HLA-DR DRB5*0101 (DR51) (Homo sapiens, UniProt P01903+Q30154); details: DRB5 *0101
HLA-DR DRB1*0101 (DR1) = HLA-DR DRB1*0101 (DR1) (Homo sapiens, UniProt P01903+P01911, A100R/D57E/F55L/F60I/F76Y/I96L/L162R/M171V/P40L/Q125E/R42F/V115G/Y59C)
HLA-DR DRB1*0301 (DR3) = HLA-DR DRB1*0301 (DR3) (Homo sapiens, UniProt P01903+P01911, A100K/A102G/A103R/A169T/F55Y/I96L/K41T/L162R/M171V/P40S/Q125H/Q178H/Q39Y/R42S/S66N/T106N/T262R/W38E/Y61H)
HLA-DR DRB1*0301 (DR3), sequence (P01903 26-254 limits assumed, other chains not shown): as above

Row | Compound | IC50 (HLA-DR DRB1*0401 (DR4); DRB1 *0401) [µM] | IC50 (HLA-DR DRB1*0701 (DR7); DRB1 *0701) [µM] | IC50 (HLA-DR DRB1*0802 (DR8)) [µM] | IC50 (HLA-DR DRB1*0901 (DR9); DRB1 *0901) [µM] | IC50 (HLA-DR DRB1*1101 (DR11)) [µM] | IC50 (HLA-DR DRB1*1302 (DR13)) [µM] | IC50 (HLA-DR DRB1*1501 (DR15)) [µM] | IC50 (HLA-DR DRB4*0101 (DR53)) [µM] | IC50 (HLA-DR DRB5*0101 (DR51)) [µM] | IC50 (HLA-DR DRB1*0101 (DR1); DRB1 *0101) [µM] | IC50 (HLA-DR DRB1*0301 (DR3)) [µM] | IC50 (HLA-DR DRB1*0701 (DR7); read-out: DRB1 *0701) [µM] | IC50 (HLA-DR DRB1*0802 (DR8); read-out: DRB1 *0802) [µM] | IC50 (HLA-DR DRB1*0901 (DR9); read-out: DRB1 *0901) [µM] | IC50 (HLA-DR DRB1*0101 (DR1); read-out: DRB1 *0101) [µM] | IC50 (HLA-DR DRB1*0301 (DR3); read-out: DRB1 *0301) [µM] | IC50 (HLA-DR DRB1*0401 (DR4); read-out: DRB1 *0401) [µM]
1 | CSCC[C@H](NC(=O)[C@H](CCC(N)=O)NC(=O)[C@H](CC(C)C)NC(=O)CNC(=O)[C@H](CO)NC(=O)[C@@H](NC(=O)[C@@H](NC(=O)[C@@H](NC(=O)[C@@H](N)CC(=O)O)[C@@H](C)O)[C@@H](C)O)C(C)C)C(=O)N[C@@H](C)C(=O)N[C@@H](CC(C)C)C(=O)N[C@@H](CC(=O)O)C(=O)N[C@H](C(=O)N[C@@H](Cc1ccc(O)cc1)C(=O)N[C@@H](CC(N)=O)C(=O)O)C(C)C | 4.42 | 14.7 | > 245 | 2.88 | > 50 | 3.5 | 1.04 | 0.961 | > 200 |  |  |  |  |  |  |  | 
2 | CC[C@H](C)[C@H](NC(=O)CNC(=O)[C@H](CCC(N)=O)NC(=O)[C@H](CC(C)C)NC(=O)[C@@H](NC(=O)CNC(=O)[C@H](CC(N)=O)NC(=O)[C@H](CS)NC(=O)[C@@H](NC(=O)[C@H](CC(C)C)NC(=O)[C@@H]1CCCN1C(=O)CN)C(C)C)C(C)C)C(=O)N[C@H](C(=O)N[C@@H](CO)C(=O)N[C@@H](Cc1c[nH]c2ccccc12)C(=O)O)[C@@H](C)O | 0.03 | 4.89 | 4.19 | 32.6 | 0.915 | 0.049 | 6.31 | 0.646 | 6.54 | 1.72 |  |  |  |  |  |  | 
3 | CC(C)C[C@H](NC(=O)[C@@H]1CCCN1C(=O)[C@H](Cc1c[nH]cn1)NC(=O)[C@@H]1CCCN1C(=O)[C@H](Cc1ccccc1)NC(=O)[C@H](CO)NC(=O)[C@H](Cc1c[nH]cn1)NC(=O)[C@H](CO)NC(=O)[C@@H](NC(=O)[C@H](CCC(N)=O)NC(=O)[C@H](Cc1ccccc1)NC(=O)[C@@H](NC(=O)[C@H](CCC(N)=O)NC(=O)CN)C(C)C)C(C)C)C(=O)N[C@@H](Cc1ccc(O)cc1)C(=O)O | 0.0082 | 0.027 | 0.548 | 0.033 |  | 0.146 | 2.17 |  | 0.128 |  | 45 |  |  |  |  |  | 
4 | CC[C@H](C)[C@H](NC(=O)[C@H](CCCCN)NC(=O)[C@H](C)NC(=O)[C@@H]1CCCN1C(=O)[C@H](CCC(=O)O)NC(=O)[C@H](CO)NC(=O)[C@H](CC(C)C)NC(=O)[C@H](CCCNC(=N)N)NC(=O)[C@H](CC(C)C)NC(=O)[C@H](CC(C)C)NC(=O)[C@H](CCSC)NC(=O)[C@H](CC(C)C)NC(=O)[C@H](CC(=O)O)NC(=O)[C@@H](N)Cc1c[nH]cn1)C(=O)N[C@H](C(=O)O)[C@@H](C)O | 3.06 | 0.109 | 0.544 | 0.043 |  | 0.00083 |  | 0.012 |  | 0.016 |  |  |  |  |  |  | 
5 | CC[C@H](C)[C@H](NC(=O)[C@H](CS)NC(=O)[C@H](Cc1c[nH]cn1)NC(=O)[C@H](C)NC(=O)[C@H](C)NC(=O)[C@@H](NC(=O)[C@H](CC(C)C)NC(=O)[C@@H](NC(=O)[C@H](Cc1c[nH]c2ccccc12)NC(=O)[C@H](CCC(N)=O)NC(=O)[C@@H]1CCCN1C(=O)[C@@H](N)Cc1c[nH]cn1)C(C)C)[C@@H](C)O)C(=O)N[C@@H](CCCNC(=N)N)C(=O)N[C@@H](CC(N)=O)C(=O)N[C@@H](CCCCN)C(=O)O | 1.62 | 0.283 | 1.3 | 0.107 |  |  | 6.5 | 5.52 | 0.04 | 0.013 | 3.63 |  |  |  |  |  | 
6 | CC[C@H](C)[C@H](N)C(=O)N[C@@H](CO)C(=O)N[C@H](C(=O)N[C@H](C(=O)N[C@@H](CC(N)=O)C(=O)N[C@@H](CCC(=O)O)C(=O)N[C@@H](CC(=O)O)C(=O)NCC(=O)N[C@@H](CC(N)=O)C(=O)N[C@@H](CCC(=O)O)C(=O)N[C@H](C(=O)N[C@@H](Cc1ccccc1)C(=O)N[C@@H](CC(N)=O)C(=O)N[C@H](C(=O)N[C@@H](CO)C(=O)O)[C@@H](C)O)[C@@H](C)CC)[C@@H](C)CC)[C@@H](C)CC | > 13 | > 23.1 | > 123 | > 52.3 |  |  |  |  |  |  | 0.559 |  |  |  |  |  | 
7 | CC[C@H](C)[C@H](NC(=O)[C@H](CO)NC(=O)[C@H](CC(C)C)NC(=O)[C@@H](NC(=O)[C@H](CC(C)C)NC(=O)[C@H](CC(=O)O)NC(=O)[C@H](Cc1c[nH]c2ccccc12)NC(=O)[C@@H](N)CCSC)C(C)C)C(=O)N[C@@H](C)C(=O)N[C@@H](CC(C)C)C(=O)N[C@@H](CO)C(=O)N[C@H](C(=O)NCC(=O)N[C@@H](CS)C(=O)N[C@H](C(=O)O)[C@@H](C)O)C(C)C | 1.85 | 3.03 | 23 | 1.73 | 81.1 | 0.108 | 11.4 | 0.158 | 70.7 | 0.205 |  |  |  |  |  |  | 
8 | CAWTIVRVEILRNFY | 0.158 | 0.746 | 43.7 | 0.757 |  |  |  | 0.152 |  | 0.066 | 3.56 |  |  |  |  |  | 
9 | DSSIEGNYTLRVDCT |  |  |  |  |  |  |  |  |  |  |  | 14.5 | > 163 | > 187 |  |  | 
10 | FYNQHLTGSHLVEAL |  |  |  |  |  |  |  |  |  |  |  | 0.015 | > 54.4 | 41.5 | 0.0092 | 67.2 | 0.858
11 | IGYYDAQKLLEKMGG | 12.6 | > 83.3 | 8.24 | 47.2 | > 28.6 | 5.73 | 1.98 | 13.6 |  |  |  |  |  |  |  |  | 
12 | KPAVYTKVVHYRICWI |  |  |  |  |  |  |  |  |  |  |  | 2.4 | 0.053 | 3.68 | 5 |  | 
13 | LAHYDVLLSYPNK |  |  |  |  |  |  |  |  |  |  |  | 3.62 | 0.415 | 1.01 | 0.079 | 37.5 | 
14 | MSAMTNLAALFPPEG |  |  |  |  |  |  |  |  |  |  |  | 36.1 | 73.9 | > 187 |  |  | 0.7
15 | MTNLAALFPPEGVS |  |  |  |  |  |  |  |  |  |  |  | > 125 | 39.2 | 22.8 | 0.024 |  | > 40
16 | PRSLQCVSLHLLSND | 16 | 2.22 | 6.11 | 28.3 | 11.1 | 3.73 | 1.6 | 0.544 | 46.4 | 1.11 |  |  |  |  |  |  | 
17 | PRWLCAGALVLAGGF | > 20 | 0.766 | 26.5 | 1.44 | > 40 | 20.2 |  | 0.883 | 40.8 | 0.046 |  |  |  |  |  |  | 
18 | RGGMVFELANSIYLP |  |  |  |  |  |  |  |  |  |  |  | 0.041 | 8.68 | 0.033 | 0.01 | 37.1 | 
19 | RQEILDLWVYHTQGF | 5.93 | 3.05 | 2.73 | 3.68 | 11.1 |  | 0.985 |  | > 20.5 |  | 10.5 |  |  |  |  |  | 
20 | SHDLMLLRLSEPAEL |  |  |  |  |  |  |  |  |  |  |  | 0.058 | 3.54 | 0.064 | 0.532 | 6.22 | 4.05
21 | VAQVRGGMVFELANS |  |  |  |  |  |  |  |  |  |  |  | 4.45 | > 98 | 0.499 |  |  | 0.662
22 | VEALYLVCGERGFLY |  | 5.35 | 10.6 | 3.06 | 55.4 | 1.87 |  | 0.019 | 5.15 | 0.014 |  |  |  |  |  |  | 
